Measured values as given in patent US5100916A, “Carbamic acid ester for treatment of addiction to alcohol” (Bio-Tox Diagnostics Kommanditbolag, priority 1988, dated 1992).

Experiments:
[1] = molecular target: T1, aldehyde dehydrogenase (low Km) (Rattus norvegicus, UniProt P11884); assay: In vitro inhibition of aldehyde dehydrogenase of low Km, rat liver homogenate; assay type: biochemical; conditions: 1 h incubation, 2760 μmol/liter, water ref. = 100, double determinations, 4 rats, read-out: Residual activity of aldehyde dehydrogenase (Low Km in % of ref. value)
T1 construct: The aldehyde dehydrogenase activity in the homogenate after incubation for 1 h; from tissue; host or cells: rat liver homogenate
T1 sequence (P11884 20-519): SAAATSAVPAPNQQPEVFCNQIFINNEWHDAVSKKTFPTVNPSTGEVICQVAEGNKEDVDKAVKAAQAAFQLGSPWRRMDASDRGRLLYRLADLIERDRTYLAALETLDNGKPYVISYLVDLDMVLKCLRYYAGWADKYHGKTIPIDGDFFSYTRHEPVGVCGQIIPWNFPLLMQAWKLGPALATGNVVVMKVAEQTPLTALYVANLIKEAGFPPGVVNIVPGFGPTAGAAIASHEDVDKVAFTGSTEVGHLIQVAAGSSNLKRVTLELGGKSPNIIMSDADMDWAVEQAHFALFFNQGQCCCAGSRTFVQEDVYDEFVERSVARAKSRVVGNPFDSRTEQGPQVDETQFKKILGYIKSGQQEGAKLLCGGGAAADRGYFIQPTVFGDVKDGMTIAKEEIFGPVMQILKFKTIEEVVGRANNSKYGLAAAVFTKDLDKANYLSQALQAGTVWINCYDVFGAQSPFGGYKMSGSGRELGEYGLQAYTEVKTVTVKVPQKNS
Procedure: (§1) METHOD FOR INHIBITING ALDEHYDE DEHYDROGENASE
(§2) Fractionation of rat liver homogenates was performed according to Tottmar et al, Biochem. J. 1973:135:577. The aldehyde dehydrogenase activity in the homogenate after incubation for 1 h with different thiocarbamic acid esters (see Table 1) was measured spectrophotometrically in 50 μl aliquots by following the reduction of NAD to NADH at 340 nm at 37° C. in the presence of the substrate acetaldehyde […], as described by Tottmar and Marcher (Acta Pharmacol. et Toxicol. 1976:38:366).
(§3) In vitro inhibition of aldehyde dehydrogenase of low Km
(§4) The values are X±SD of double determinations, on the one hand in homogenates from 4 rats and, on the other hand, in bovine liver (last two values in Table 1).
(§5) The concentration=2760 μmol/liter for all compounds, except the last two compounds for which the concentration was 3.0 mmol/liter.

[2] = system: acetaldehyde dehydrogenase; conditions: cited from earlier work
[3] = cited from earlier work
[4] = cited from earlier work; remark: listed apart in the source
patients = conditions: person takes disulfiram and then drinks alcohol; cited from earlier work
[5] = system: aldehyde dehydrogenase (low Km); assay: In vitro inhibition of aldehyde dehydrogenase, measured on bovine liver; assay type: biochemical; conditions: 3.0 mmol/liter, water ref. = 100, double determinations, 60 min
Procedure: as §1, §2, §3
*Measured on bovine liver
as §4, §5

rats = assay: "Antabuse-alcohol" reaction on rats by tonometry (diastolic blood pressure after ethanol); assay type: in vivo, rat; conditions: N = 3, salt water 92.5 ± 5.2
Procedure: Method of assessing the "Antabuse®-alcohol" reaction on rats by tonometry
These measurements were performed on a selected compound. The substance employed is diethyl thiocarbamic acid-S-methyl ester (referred to as DTSM hereinafter).
Male rats having a body weight of 300-400 g were anaesthetised with urethane 1.25 g/kg i.p. On a group of 4 rats, a catheter filled with heparin-salt water was inserted by operative surgery in one carotid artery, and the blood pressure was recorded before and after intraperitoneal injection of ethanol (1 g/kg, 10 ml/kg of 10% v/v ethanol in water). Two other groups of 3 rats each were treated intraperitoneally with DTSM for 1 and 2 hours, respectively, whereupon ethanol (1 g/kg, 10 ml/kg of 10% v/v ethanol in water) was injected intraperitoneally. The blood pressure was measured before the injection of ethanol and for 30 min. after injection, after which time the blood pressure has usually stabilized itself (Hellstrom and Tottmar: Pharmacology Biochemistry and Behaviour 1982:17:1103).

Row | remaining activity at 2760 µM [1] [%] | SMILES | also measured
1 | 11 | CCCN(CCC)C(=O)SC | 
2 | 10 | CSC(=O)NCCc1ccc(O)cc1 | 
3 | 8 | CSC(=O)Nc1ccccc1 | 
4 | 16 | CSC(=O)N1CCCCC1 | 
5 | 9 | CSC(=O)N1CCCC1 | 

More lines, now with the values behind:

Row | SMILES | remaining activity at 2760 µM [1] [%] | also measured
6 | CCSC(=O)N(CC)CC [X = CH2 CH3, R = CH2 CH3, R1 = CH2 CH3, diethyl thiocarbamic acid-S-ethyl ester] | 8 | 
7 | CCN(CC)C(=S)SSC(=S)N(CC)CC [disulfiram] |  | blocking of liver enzyme acetaldehyde dehydrogenase [2]: irreversible blocking; solubility in water [3]: very sparingly soluble in water; t 1/2 of metabolism in blood [4]: 4 min; disulfiram/alcohol reaction (patients): nausea, a ruddy complexion, palpitation of the heart, low blood pressure, vomiting, and a pulsating headache
8 | CSC(=O)NCCc1ccccc1 | 0 | 
9 | CCN(CC)C(=O)OC [Diethyl carbamic acid-methyl ester] |  | Residual activity of aldehyde dehydrogenase (Low Km in % of ref. value) [5]: 87 % of ref. value
10 | CCN(CC)C(=O)SC [DTSM, diethyl thiocarbamic acid-S-methyl ester] | 73 | Diastolic blood pressure of rats 30 min. after ethanol injection, % of own ref. value (X ± SD) (rats; DTSM 30 mg/kg i.p. 1 hour before ethanol 1 g/kg i.p., p <0.01): 77.1 ± 3.6 % of own ref. value; Diastolic blood pressure of rats 30 min. after ethanol injection, % of own ref. value (X ± SD) (rats; DTSM 30 mg/kg i.p. 2 hours before ethanol 1 g/kg i.p., p <0.05): 57.6 ± 28 % of own ref. value
11 | CSC(=O)N(C)C [X = CH3, R = CH3, R1 = CH3, dimethyl thiocarbamic acid-S-methyl ester] | 16 | 
12 | COC(=O)N1CCCCC1 [1-piperidine carbamic acid-methyl ester] |  | Residual activity of aldehyde dehydrogenase (Low Km in % of ref. value) [5]: 76 % of ref. value
